Test results published in patent US20250034200A1, “Prodrugs of Neurosteroid Analogs and Uses Thereof” (priority 2021, published 2025).
Structures can show the parent of a compound that is named as a salt. Where two headings read alike, the source gives them in different places.

How the values were obtained:
[1] = Nephelometry (aqueous solubility); assay type: physicochemical; conditions: DPBS with 1% DMSO, aqueous buffer, kinetic from dmso stock, DPBS pH 7.0-7.3, 1% DMSO, 25° C.
Excerpt: Well A1 of the plate contained 100% DMSO.

[2] = Aqueous stability assay (HPLC, pseudo first-order half-life); assay type: physicochemical; conditions: DPBS pH 7.0-7.3, 1 mg/mL, room temperature
Method: Aqueous stability experiments were performed on an Agilent 1100 HPLC equipped with an Agilent 1200 autosampler. HPLC grade solvents were exclusively used during analysis, with acetonitrile being purchased from Sigma Aldrich, and water and formic acid provided by Fisher Scientific. […]
[…] All mixtures were then sonicated for 5 min or stirred until complete dissolution was achieved. Any precipitate observed in sample solutions was filtered with a PTFE syringe filter prior to analysis. Immediately after sample preparation, injection by the HPLC autosampler was performed, which was recorded as the initial time point (t=0 min). Samples were then kept in the autosampler at room temperature and injected at designated intervals without additional filtration or sample modification. Next, the area of the parent peak in each chromatogram was determined by automated integration in the Agilent ChemStation software. Pseudo first-order half-lives were then ascertained by calculating the percent of the parent compound remaining after each time point. Plots of time (x-axis) vs. the natural logarithm of percent parent remaining (y-axis) were subsequently constructed to determine the slope. Finally, the aqueous stability was evaluated using the following equation:
The HPLC conditions were as follows: injection volume, 1 μL; column temperature: 40° C.; detector: 254 nm; stationary phase: Zorbax Eclipse XDB-C18 (4.6×150 mm, 5 μm); flow rate: 1 mL/min; mobile phase: 80-95% acetonitrile in H2O (0.1% formic acid).

[3] = Plasma stability assay (LC-MS/MS); assay type: in vitro ADME; conditions: human plasma, 37° C., 3 μM
Method: Procaine and procainamide were purchased from Sigma Aldrich. HPLC-grade acetonitrile, water, methanol, and formic acid were purchased from Fisher Scientific. Human plasma (Cat. No. […]2N) was obtained from BIOIVT, and PBS (1×Dulbecco's, pH 7.4) from Thermo Fisher Scientific.
Test compounds were dissolved in DMSO to make a stock solution of 10 mM and then diluted to 500 μM in buffer or 70% methanol. Human plasma was thawed at ambient temperature and aliquoted (994.0 μL) to a 1.5 mL Eppendorf tube in duplicates (vials A and B) for each compound. The plasma was incubated at 37° C. for 10 min in an incubator shaker at 150 RPM; the reaction was initiated by addition of the test compound (6.0 μL), followed by vortex mixing. The total reaction volume was 1000 μL, the final organic solvent concentrations were […] (when 70% methanol was used for dilution) and 0.03% DMSO, and the final concentration of the test compound was 3 μM. The spiked plasma samples were incubated at 37° C. for 4 h. The reactions were terminated at time point 0, 15, 30, 60, 120, 180, and 240 min by taking a 100 μL aliquot from the test incubation mixture and immediately quenching it by adding it into ice-cold acetonitrile or methanol (150 μL) containing 2 μM internal standard (ISTD), followed by vortex mixing. The ISTD was d5-7-ethoxy coumarin. The samples were then centrifuged at 15000 RPM for 25 min at 4° C., and the supernatant was transferred to an LC-MS vial for analysis by LC-MS/MS. Each time point was tested in duplicates followed by in-between blank washes to avoid carryover and to equilibrate the column.
Procaine (poor plasma stability) and procainamide (good plasma stability) were used as controls at the same concentration as that of the test compound. These controls were run in parallel to test the assay's competency. Matrix blank was prepared by adding acetonitrile or methanol containing ISTD to plasma samples without any of the test or control compounds. Also, an additional control sample was made to simply monitor compound degradation in PBS buffer.
Below is a summary of samples prepared for a given test compound in a typical plasma stability assay: • Test compound (TC): 994 μL human plasma+6.0 μL TC (Vial A) 994 μL human plasma+6.0 μL TC (Vial B) • Control: 596 μL human plasma+3.6 μL (procaine+procainamide) • Blank matrix: 500 μL PBS buffer+100 μL human plasma • Additional control: 142 μL PBS buffer+0.9 μL TC • Quenching mixture: 150 μL acetonitrile or methanol with ISTD (2 μM) • Final volume: 250 μL (100 μL from the incubation mixture+150 μL quenching mixture; final ISTD conc.: 1.2 μM)
LC-MS/MS analysis was performed using Agilent 1260 Infinity II HPLC, coupled with an Agilent G6460 triple quadrupole mass spectrometer (Agilent Technologies, USA). The data were acquired and processed using the Agilent 6460 Quantitative Analysis data processing software.
Reverse-phase HPLC separation for each compound was achieved on an Agilent InfinityLab Poroshell 120 C18 column (2.1×50 mm, 2.7 μm) with a mobile phase composed of methanol/water with 0.1% formic acid or acetonitrile/water with 0.1% formic acid at a flow rate of 0.5 mL/min. Each method was developed in the presence of the ISTD. The column temperature was maintained at 40° C. The detection was operated using the Agilent Jet-Stream electrospray positive ionization under the multiple reaction monitoring mode. The mass spec conditions were as follows: dwell time 100 ms; gas flow 10 L/min; nebulizer pressure 45 psi; delta EMV 200 V.
Plots of time (x-axis) vs. the natural logarithm of percent parent remaining (y-axis) were subsequently constructed to determine the slope. Finally, the plasma stability was evaluated using the following equation: […]

[4] = male, Sprague Dawley, rat, in vivo
Method: Test System—Healthy male Sprague Dawley rats (8-12 weeks old) weighing between 200 to 250 g were procured from Global, India. […] Temperature and humidity were maintained at 22±3° C. and 30-70%, respectively and illumination was controlled to give a sequence of 12 h light and 12 h dark cycle. Temperature and humidity were recorded by auto-controlled data logger system. All the animals were provided with laboratory rodent diet (Envigo Research private Ltd, Hyderabad). Reverse osmosis water treated with ultraviolet light was provided ad libitum.
Design—Rats (n=3 per treatment group, serial sampling) were administered a solution of either normal saline vehicle or test compound in normal saline at 2 mg/kg (IV) or 10 mg/kg (IM) with a dosing volume of 5 mL/kg (IV) or 1 mL/kg (IM).
Sample Collection—Blood samples (approximately 60 μL) were collected under light isoflurane anesthesia (Surgivet®) from retro orbital plexus from a set of three rats at 0.08, 0.25, 0.5, 1, 2, 4, 6, 8 and 10 h (IV) or 0.25, 0.5, 1, 2, 4, 6, 8 and 10 h (IM). Immediately after blood collection, plasma was harvested by centrifugation 4000 rpm, 10 min at 40° C. and samples were stored at −70±10° C. until bioanalysis.
Data Analysis—Concentrations of the test compound and its parent compound, progesterone C20-oxime, in rat plasma were determined by fit-for-purpose LC-MS/MS method by Sai Life Sciences. […] Cmax represents the mean observed maximum concentration of analyte. Tmax represents the average time at observed Cmax. Areas under the curve (AUC0-last) were calculated via the linear trapezoidal rule using GraphPad Prism v9.

[5] = buffer, read-out: PBS t1/2 (converted)
[6] = buffer, d (days), read-out: PBS t1/2 (converted)

Row | Compound | solubility at 90 min [1] [µM] | half-life [2, 5] [h] | PBS t1/2 [2] [h] | Plasma % rmn at 2 h [3] [%] | further results
1 | C/C(=N\OC(=O)N(C)CCNCCO)[C@H]1CC[C@H]2[C@@H]3CCC4=CC(=O)CC[C@]4(C)[C@H]3CC[C@]12C [32d, 2-((((((E)-1-((8S,9S,10R,13S,14S,17S)-10,13-dimethyl-3-oxo-2,3,6,7,8,9,10,11,12,13,14,15,16,17-tetradecahydro-1H-cyclopenta[a]phenanthren-17-yl)ethylidene)amino)oxy)carbonyl)(methyl)amino)-N-(2-hydroxyethyl)ethan-1-aminium chloride] | > 500 | 30.4 ± 5 | – | – | Plasma t1/2 [3]: 2.8 h
2 | C/C(=N\OC(=O)NC[C@@H]1CCCN1)[C@H]1CCC2[C@@H]3CCC4=CC(=O)CC[C@]4(C)[C@H]3CC[C@@]21C (stereo partly drawn) [32g, (8S,9S,10R,13S,17S)-10,13-dimethyl-17-((E)-1-((((((S)-pyrrolidin-2-yl)methyl)carbamoyl)oxy)imino)ethyl)-1,2,6,7,8,9,10,11,12,13,14,15,16,17-tetradecahydro-3H-cyclopenta[a]phenanthren-3-one hydrochloride] | > 750 | – | – | – | half-life at 1 mg/mL [2, 6]: 396 h; half-life at 3 µM ([3]; read-out: Plasma t1/2 (converted)): 9.6 h
3 | CNCCN(C(=O)O/N=C(\C)[C@H]1CC[C@H]2[C@@H]3CCC4=CC(=O)CC[C@]4(C)[C@H]3CC[C@]12C)C(C)C.O=C(O)C(F)(F)F [53a, (E)-9-((8S,9S,10R,13S,14S,17S)-10,13-dimethyl-3-oxo-2,3,6,7,8,9,10,11,12,13,14,15,16,17-tetradecahydro-1H-cyclopenta[a]phenanthren-17-yl)-5-isopropyl-7-oxa-2,5,8-triazadec-8-en-6-one 2,2,2-trifluoroacetate] | > 750 | – | 19.72 ± 0.38 | 41 | –
4 | CNCCN(C(=O)O/N=C(\C)[C@H]1CC[C@H]2[C@@H]3CCC4=CC(=O)CC[C@]4(C)[C@H]3CC[C@]12C)C1CC1.O=C(O)C(F)(F)F [53b, (E)-5-cyclopropyl-9-((8S,9S,10R,13S,14S,17S)-10,13-dimethyl-3-oxo-2,3,6,7,8,9,10,11,12,13,14,15,16,17-tetradecahydro-1H-cyclopenta[a]phenanthren-17-yl)-7-oxa-2,5,8-triazadec-8-en-6-one 2,2,2-trifluoroacetate] | > 750 | – | 28.16 ± 0.04 | 45 | –
5 | CNCCN(C(=O)O/N=C(\C)[C@H]1CC[C@H]2[C@@H]3CCC4=CC(=O)CC[C@]4(C)[C@H]3CC[C@]12C)C1CCCC1.O=C(O)C(F)(F)F [53d, (E)-5-cyclopentyl-9-((8S,9S,10R,13S,14S,17S)-10,13-dimethyl-3-oxo-2,3,6,7,8,9,10,11,12,13,14,15,16,17-tetradecahydro-1H-cyclopenta[a]phenanthren-17-yl)-7-oxa-2,5,8-triazadec-8-en-6-one 2,2,2-trifluoroacetate] | > 750 | – | 10.70 ± 0.15 | 65 | –
6 | CNCCN(CC(C)C)C(=O)O/N=C(\C)[C@H]1CC[C@H]2[C@@H]3CCC4=CC(=O)CC[C@]4(C)[C@H]3CC[C@]12C.O=C(O)C(F)(F)F [53e, (E)-9-((8S,9S,10R,13S,14S,17S)-10,13-dimethyl-3-oxo-2,3,6,7,8,9,10,11,12,13,14,15,16,17-tetradecahydro-1H-cyclopenta[a]phenanthren-17-yl)-5-isobutyl-7-oxa-2,5,8-triazadec-8-en-6-one 2,2,2-trifluoroacetate] | > 750 | > 24 | – | 83 | –
7 | CCNCCN(CC)C(=O)O/N=C(\C)[C@H]1CC[C@H]2[C@@H]3CCC4=CC(=O)CC[C@]4(C)[C@H]3CC[C@]12C.Cl [54a, (E)-2-((8S,9S,10R,13S,14S,17S)-10,13-dimethyl-3-oxo-2,3,6,7,8,9,10,11,12,13,14,15,16,17-tetradecahydro-1H-cyclopenta[a]phenanthren-17-yl)-6-ethyl-4-oxa-3,6,9-triazaundec-2-en-5-one hydrochloride] | > 750 | > 24 | – | 71 | –
8 | C/C(=N\OC(=O)N(CCNC(C)C)C(C)C)[C@H]1CC[C@H]2[C@@H]3CCC4=CC(=O)CC[C@]4(C)[C@H]3CC[C@]12C.Cl [54b, (E)-2-((8S,9S,10R,13S,14S,17S)-10,13-dimethyl-3-oxo-2,3,6,7,8,9,10,11,12,13,14,15,16,17-tetradecahydro-1H-cyclopenta[a]phenanthren-17-yl)-6-isopropyl-10-methyl-4-oxa-3,6,9-triazaundec-2-en-5-one hydrochloride] | > 500 | > 24 | – | 84 | –
9 | C/C(=N\OC(=O)N(CCO)CCNCCO)[C@H]1CC[C@H]2[C@@H]3CCC4=CC(=O)CC[C@]4(C)[C@H]3CC[C@]12C.Cl [54d, (E)-2-((8S,9S,10R,13S,14S,17S)-10,13-dimethyl-3-oxo-2,3,6,7,8,9,10,11,12,13,14,15,16,17-tetradecahydro-1H-cyclopenta[a]phenanthren-17-yl)-11-hydroxy-6-(2-hydroxyethyl)-4-oxa-3,6,9-triazaundec-2-en-5-one hydrochloride] | > 750 | – | 28.79 ± 3.16 | 32 | –
10 | C/C(=N/OCOP(=O)([O-])[O-])[C@H]1CC[C@H]2[C@@H]3CCC4=CC(=O)CC[C@]4(C)[C@H]3CC[C@]12C.[Na+].[Na+] [EIDD-1723] | – | – | – | – | increase in the dose-corrected exposure to parent progesterone C20-oxime, IM compared to the IV route [4]: 3 fold; Parent AUClast ([4]; im, 10 mg/kg): 753 ± 29 ng·h/mL; Parent AUClast ([4]; iv, 2 mg/kg): 48 ± 6 ng·h/mL; Parent Cmax ([4]; iv, 2 mg/kg): 219 ng/mL
11 | C/C(=N\OC(=O)NCCN(C)C)[C@H]1CC[C@H]2[C@@H]3CCC4=CC(=O)CC[C@]4(C)[C@H]3CC[C@]12C.Cl [compound 34, (E)-9-((8S,9S,10R,13S,14S,17S)-10,13-dimethyl-3-oxo-2,3,6,7,8,9,10,11,12,13,14,15,16,17-tetradecahydro-1H-cyclopenta[a]phenanthren-17-yl)-2-methyl-7-oxa-2,5,8-triazadec-8-en-6-one hydrochloride] | > 750 | – | – | – | half-life [2, 6]: 787 h; Plasma t1/2 [3]: >3.5 h
